Assay results from US20230114241A1, “METHODS OF TREATING EPILEPSY USING THE SAME” (Trevena, Inc., priority 2019, published 2023).

How the values were obtained:
[1] = molecular target: T1, human sphingosine-1-phosphate receptor 1 (S1P1) (Homo sapiens, UniProt P21453); assay: Inhibition of cAMP production (HTRF cAMP HiRange), S1P1 CHO-K1 cells; format: cell-based
Procedure, shortened: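 Intracellular cAMP changes read by TR-FRET (HTRF HiRange, 1 h room temperature) after 30 min compound exposure at 37 °C. Cells: overnight-plated CHO-K1 stably expressing tagged human S1P1 with EA-β-arrestin2. Responses normalized to fingolimod.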
Target sequence in this assay (P21453 whole entry): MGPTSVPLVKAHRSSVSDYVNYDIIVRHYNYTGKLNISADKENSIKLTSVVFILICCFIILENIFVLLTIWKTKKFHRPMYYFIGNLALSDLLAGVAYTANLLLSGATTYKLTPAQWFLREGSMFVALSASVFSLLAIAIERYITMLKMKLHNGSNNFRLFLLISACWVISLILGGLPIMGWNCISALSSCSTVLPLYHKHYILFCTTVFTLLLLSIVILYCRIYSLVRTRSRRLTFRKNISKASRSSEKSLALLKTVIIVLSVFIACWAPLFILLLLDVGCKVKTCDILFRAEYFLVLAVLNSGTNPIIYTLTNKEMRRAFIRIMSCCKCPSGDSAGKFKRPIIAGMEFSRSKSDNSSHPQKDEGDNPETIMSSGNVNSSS

[2] = molecular target: T1, human sphingosine-1-phosphate receptor 1 (S1P1); assay: β-Arrestin2 recruitment assay (PathHunter), S1P1 CHO-K1 cells; format: cell-based
Procedure, shortened: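 Agonist-driven β-arrestin2 recruitment measured by β-galactosidase complementation after 60 min compound exposure at 37 °C and 1 h detection at room temperature. Cells: stable CHO-K1 line expressing tagged human S1P1 with EA-β-arrestin2, plated the night before. Data expressed relative to fingolimod.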
Target sequence in this assay (P21453 whole entry): as above
Target sequence in this assay (P32121 whole entry partner): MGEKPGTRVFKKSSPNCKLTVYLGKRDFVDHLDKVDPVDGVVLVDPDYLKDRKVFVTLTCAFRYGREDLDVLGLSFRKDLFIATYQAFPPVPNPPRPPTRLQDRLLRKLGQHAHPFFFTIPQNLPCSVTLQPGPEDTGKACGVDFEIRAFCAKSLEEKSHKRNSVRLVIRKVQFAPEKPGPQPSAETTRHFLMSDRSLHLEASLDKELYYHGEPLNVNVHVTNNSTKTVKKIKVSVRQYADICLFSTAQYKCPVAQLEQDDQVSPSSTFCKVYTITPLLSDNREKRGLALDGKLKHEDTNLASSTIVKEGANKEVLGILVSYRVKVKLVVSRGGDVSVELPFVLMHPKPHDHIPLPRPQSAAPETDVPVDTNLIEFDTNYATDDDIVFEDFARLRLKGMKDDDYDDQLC

[3] = CHO-K1, efficacy normalized to maximum efficacy of fingolimod, read-out: hS1P1 CAMP SPAN
[4] = inhibition of cAMP production, S1P1, read-out: hS1P1 CAMP pEC50 (converted)
[5] = CHO-K1, efficacy normalized to maximum efficacy of fingolimod, read-out: hS1P1 B-arrestin2 SPAN
[6] = β-arrestin2 recruitment, S1P1, read-out: hS1P1 B-arrestin2 pEC50 (converted)

Structure (SMILES) | Emax [1, 3] [%] | EC50 [1, 4] [µM] | Emax [2, 5] [%] | EC50 [2, 6] [µM] | EC50 [1] [µM] | Emax ([1]; CHO-K1, read-out: hS1P1 CAMP SPAN) [%] | EC50 [2] [µM] | Emax ([2]; CHO-K1, read-out: hS1P1 B-arrestin2 SPAN) [%]
CC(C)Nc1ccc(-c2nnc(-c3ccc4c(c3)ncn4CCO)o2)cc1C#N [Compound 574, 5-{5-[1-(2-hydroxy-ethyl)-1H-1,3-benzodiazol-5-yl]-1,3,4-oxadiazol-2-yl}-2-[(propan-2-yl)amino]benzonitrile] | > 75 | > 0.316 | > 75 | > 10 |  |  |  | 
N#Cc1cc(-c2nnc(-c3ccc4c(c3)ncn4CCO)o2)ccc1NCC(F)F [Compound 578, 2-[(2,2-difluoro-ethyl)amino]-5-{5-[1-(2-hydroxyethyl)-1H-1,3-benzodiazol-5-yl]-1,3,4-oxadiazol-2-yl}benzonitrile] | > 75 | > 0.316 | < 75 | > 10 |  |  |  | 
CC(C)Nc1ccc(-c2nnc(-c3ccc4ncn(C)c4c3)o2)cc1C#N [Compound 579, 5-[5-(1-methyl-1H-1,3-benzodiazol-6-yl)-1,3,4-oxadiazol-2-yl]-2-[(propan-2-yl)amino]benzonitrile] | > 75 | < 0.316 | > 75 | < 10 |  |  |  | 
Cn1cnc2ccc(-c3nnc(-c4ccc(NCC(F)F)c(C#N)c4)o3)cc21 [Compound 580, 2-[(2,2-difluoro-ethyl)amino]-5-[5-(1-methyl-1H-1,3-benzodiazol-6-yl)-1,3,4-oxadiazol-2-yl]benzonitrile] | > 75 | < 0.316 | > 75 | < 10 |  |  |  | 
COc1cc(NC(C)=O)ccc1-c1nc(-c2ccncc2)no1 [Compound 582, N-{3-methoxy-4-[3-(pyridin-4-yl)-1,2,4-oxadiazol-5-yl]phenyl}acetamide] | > 75 | > 0.316 | < 75 | > 10 |  |  |  | 
CCOP(=O)(Cc1ccc(-c2noc(-c3ccc4c(c3)nnn4C(C)C)n2)cc1)OCC [Compound 583, diethyl[(4-{5-[1-(propan-2-yl)-1H-1,2,3-benzotriazol-5-yl]-1,2,4-oxadiazol-3-yl}phenyl)methyl]phosphonate] |  |  |  |  | > 0.316 | < 75 | > 10 | < 75
CC(C)Nc1ccc(-c2nnc(-c3cccc4[nH]cnc34)o2)cc1C#N [Compound 585, 5-[5-(1H-1,3-benzo-diazol-4-yl)-1,3,4-oxadiazol-2-yl]-2-[(propan-2-yl)amino]benzonitrile] | > 75 | < 0.316 | > 75 | < 10 |  |  |  | 
N#Cc1cc(-c2nnc(-c3cccc4[nH]cnc34)o2)ccc1NCC(F)F [Compound 586, 5-[5-(1H-1,3-benzodiazol-4-yl)-1,3,4-oxadiazol-2-yl]-2-[(2,2-difluoro-ethyl)amino]benzonitrile] | > 75 | < 0.316 | > 75 | < 10 |  |  |  | 
CCC1CC(=O)c2ccc(-c3nc(-c4cccnc4)no3)cc2O1 (stereo not shown) [Compound 588, 2-ethyl-7-[3-(pyridin-3-yl)-1,2,4-oxadiazol-5-yl]-3,4-dihydro-2H-1-benzopyran-4-one] | < 75 | > 0.316 | < 75 | > 10 |  |  |  | 
CCC1CC(=O)c2ccc(-c3nc(-c4ccncc4)no3)cc2O1 (stereo not shown) [Compound 589, 2-ethyl-7-[3-(pyridin-4-yl)-1,2,4-oxadiazol-5-yl]-3,4-dihydro-2H-1-benzopyran-4-one] | < 75 | > 0.316 | > 75 | > 10 |  |  |  | 
CC(C)(O)Cn1nnc2cc(-c3nc(-c4ccc5nonc5c4)no3)ccc21 [Compound 590, 1-{5-[3-(2,1,3-benzoxa-diazol-5-yl)-1,2,4-oxadiazol-5-yl]-1H-1,2,3-benzotriazol-1-yl}-2-methylpropan-2-ol] | < 75 | > 0.316 | < 75 | > 10 |  |  |  | 
CCC1(CC)CC(=O)c2cc(-c3nc(-c4cccs4)no3)ccc2N1 [Compound 591, 2,2-diethyl-6-(3-(thiophen-2-yl)-1,2,4-oxadiazol-5-yl)-2,3-dihydroquinolin-4(1H)-one] | < 75 | < 0.316 | > 75 | < 10 |  |  |  | 
CCC1(CC)CC(=O)c2cc(-c3nc(-c4ccnc(C(=O)NC)c4)no3)ccc2O1 [Compound 592, 4-(5-(2,2-diethyl-4-oxochroman-6-yl)-1,2,4-oxadiazol-3-yl)-N-methylpicolinamide] | < 75 | > 0.316 | > 75 | > 10 |  |  |  | 
CCC1(CC)CC(=O)c2cc(-c3ncc(-c4ccccc4OC)cn3)ccc2O1 [Compound 594, 2,2-diethyl-6-(5-(2-methoxyphenyl)pyrimidin-2-yl)chroman-4-one] | > 75 | < 0.316 | > 75 | < 10 |  |  |  | 
CC(C)Oc1ccc(-c2ncc(-c3ccc4c(c3)nnn4C(C)C)cn2)cc1C#N [Compound 595, 2-isopropoxy-5-(5-(1-isopropyl-1H-benzo[d][1,2,3]triazol-5-yl)pyrimidin-2-yl)benzonilrile] | > 75 | < 0.316 | > 75 | < 10 |  |  |  | 
CC(C)Nc1ccc(-c2ncc(-c3ccc4c(c3)nnn4C(C)C)cn2)cc1C#N [Compound 596, 5-(5-(1-isopropyl-1H-benzo[d][1,2,3]triazol-5-yl)pyrimidin-2-yl)-2-(isopropyl-amino)benzonitrile] | < 75 | < 0.316 | > 75 | < 10 |  |  |  | 
Cc1cnccc1-c1noc(-c2ccc3c(c2)nnn3CC(C)(C)O)n1 [Compound 597, 2-methyl-1-{5-[3-(3-methylpyridin-4-yl)-1,2,4-oxadiazol-5-yl]-1H-1,2,3-benzotriazol-1-yl}propan-2-ol] | > 75 | < 0.316 | > 75 | < 10 |  |  |  | 
Cc1ccccc1-c1cc(-c2ccc3c(c2)nnn3C(C)C)c[nH]1 [Compound 601, 5-[5-(2-methylphenyl)-1H-pyrrol-3-yl]-1-(propan-2-yl)-1H-1,2,3-benzotriazole] | > 75 | > 0.316 | < 75 | < 10 |  |  |  | 

Now from value to compound, other results behind:

Emax [1, 3] [%] | EC50 [1, 4] [µM] | Emax [2, 5] [%] | EC50 [2, 6] [µM] | Structure (SMILES) | EC50 [1] [µM] | Emax ([1]; CHO-K1, read-out: hS1P1 CAMP SPAN) [%] | EC50 [2] [µM] | Emax ([2]; CHO-K1, read-out: hS1P1 B-arrestin2 SPAN) [%]
< 75 | > 0.316 | > 75 | > 10 | CC(C)n1nnc2cc(-c3noc(-c4ncccc4O)n3)ccc21 [Compound 602, 2-{3-[1-(propan-2-yl)-1H-1,2,3-benzo-triazol-5-yl]-1,2,4-oxadiazol-5-yl}pyridin-3-ol] |  |  |  | 
> 75 | < 0.316 | > 75 | < 10 | CCC1(CC)CC(=O)c2cc(-c3nc(-c4cncc(S(N)(=O)=O)c4)no3)ccc2O1 [Compound 603, 5-(5-(2,2-diethyl-4-oxochroman-6-yl)-1,2,4-oxadiazol-3-yl)pyridine-3-sulfonamide] |  |  |  | 
> 75 | < 0.316 | > 75 | < 10 | CCC1(CC)CC(=O)c2cc(-c3nc(-c4sccc4OC)no3)ccc2O1 [Compound 604, 2,2-diethyl-6-(3-(3-methoxythiophen-2-yl)-1,2,4-oxadiazol-5-yl)chroman-4-one] |  |  |  | 
> 75 | < 0.316 | > 75 | < 10 | CC(C)n1nnc2cc(-c3noc(-c4cccc5c4CCC5=O)n3)ccc21 [Compound 608, 4-{3-[1-(propan-2-yl)-1H-1,2,3-benzo-triazol-5-yl]-1,2,4-oxadiazol-5-yl}-2,3-dihydro-1H-inden-1-one] |  |  |  | 
< 75 | < 0.316 | < 75 | > 10 | Cc1ccccc1-c1nc(-c2ccc3c(c2)nnn3C(C)(C)CO)no1 [Compound 609, 2-methyl-2-(5-(5-(o-tolyl)-1,2,4-oxadiazol-3-yl)-1H-benzo[d] [1,2,3]triazol-1-yl)propan-1-ol] |  |  |  | 
< 75 | > 0.316 | > 75 | > 10 | COc1ccc(-c2nc(-c3ccc4c(c3)nnn4C(C)(C)CO)no2)c(C)c1 [Compound 610, 2-(5-(5-(4-methoxy-2-methylphenyl)-1,2,4-oxadiazol-3-yl)-1H-benzo[d] [1,2,3]triazol-1-yl)-2-methylpropan-1-ol] |  |  |  | 
< 75 | > 0.316 | < 75 | > 10 | Cc1ccncc1-c1noc(-c2ccc3c(c2)NC(=O)CN3)n1 [Compound 613, 7-[3-(4-methylpyridin-3-yl)-1,2,4-oxadiazol-5-yl]-1,2,3,4-tetra-hydroquinoxalin-2-one] |  |  |  | 
> 75 | > 0.316 | < 75 | > 10 | COc1ccccc1-c1noc(-c2ccc3c(c2)NC(=O)CN3)n1 [Compound 614, 7-[3-(2-methoxyphenyl)-1,2,4-oxadiazol-5-yl]-1,2,3,4-tetrahydro-quinoxalin-2-one] |  |  |  | 
> 75 | < 0.316 | > 75 | < 10 | CC(C)n1nnc2cc(-c3noc(-c4ccccc4N(C)C)n3)ccc21 [Compound 615, N,N-dimethy1-2-{3-[1-(propan-2-yl)-1H-1,2,3-benzotriazol-5-yl]-1,2,4-oxadiazol-5-yl}aniline] |  |  |  | 
> 75 | < 0.316 | > 75 | < 10 | CCC1(CC)CC(=O)c2cc(-c3nc(-c4ccnc(S(N)(=O)=O)c4)no3)ccc2O1 [Compound 616, 4-(5-(2,2-diethyl-4-oxochroman-6-yl)-1,2,4-oxadiazol-3-yl)pyridine-2-sulfonamide] |  |  |  | 
